For assay [1], the system named is human neuroblastoma and lung carcinoma cell lines. Briefly: Tumor Cell Titer-Glo viability assay, interference with cisplatin tumor killing (six cell lines). The class given is cell-based. Conditions: compound at 3× protective IC50 (dabrafenib 35 μM, AZD5438 […]) + 15 μM cisplatin (200 μM for A549), 48 hours. The text has this:
(§1) In clinical settings, cisplatin is used to treat several tumor types, including neuroblastoma and lung carcinoma. […] Medium-alone–, cisplatin-alone–, and dabrafenib-alone–treated cells were used as controls, and viability was reported as percent survival compared to medium alone (Fig. 4E).
(§2) Three human neuroblastoma cell lines IMR-32, SH-SY5Y, and, SK-N-AS, as well as three human lung carcinoma cell lines SHP-77 small cell, H1155 non–small cell, and A549 non–small cell, were used to determine the compounds’ effect on cisplatin’s tumor-killing efficacy ([77]–[83]). Cell lines were purchased from the American Type Culture Collection (ATCC), and cell culture was conducted according to ATCC specifications. Neuroblastoma cell lines IMR-32 and SH-SY5Y are maintained in Dulbecco’s modified Eagle’s medium (DMEM) 1× with glucose (4.5 g/liter), L-glutamine, and sodium pyruvate (10-013-CV, Corning) with 10% fetal bovine serum (FBS) (35011132, Corning) and ampicillin (50 μg/ml; A5354-10ML, Sigma-Aldrich) added. The SK-N-AS cell line is maintained in DMEM 1× with D-glucose (4.5 g/liter), L-glutamine, and 25 mM Hepes (12430-054, Gibco) with 10% FBS, 0.1 mM nonessential amino acids, and ampicillin (50 μg/ml) added. A549 cells are maintained in F-12K medium with L-glutamine (30-2004, ATCC) with 10% FBS and ampicillin (50 μg/ml) added. […]

The test system of assay [2] is SK-N-AS. The assay is described as follows: Tumor Cell Titer-Glo viability assay, SK-N-AS. The conditions noted are these: SKN-AS, + 15 μM cisplatin, 48 hours. Type of assay: cell-based, human.
Description: as §1, §2

Assay [3] deals with Tg(brn3c:GFP) zebrafish larvae neuromast HCs. The assay is described as follows: Zebrafish lateral line neuromast hair cell loss after cisplatin. Type of assay: in vivo. The conditions noted are these: 1 hour pretreatment, 6 hours 400 μM cisplatin; dabrafenib 100 nM. The text has this:
Lateral line neuromasts of zebrafish are a well-established model for the study of drug protection from cisplatin or aminoglycoside toxicity because their HCs are considered homologous to mammalian HCs and readily accessible to compounds in vivo ([47]–[49]). As in our previous studies, MI1 (medial neuromast 1) and O1-2 (otic line) neuromasts were examined in Tg(brn3c:GFP) zebrafish larvae 5 days after fertilization ([50], [51]). […] Green fluorescent protein (GFP) (brn3c) and otoferlin staining were used to identify neuromast HCs. In fig.
Zebrafish (D. rerio) experimental larvae of either sex were obtained by pair mating of adult fish maintained at Boys Town National Research Hospital. We used zebrafish line Tg(brn3c:GFP) that expresses a membrane-bound GFP in HCs. Fish were maintained at 28.5°C in E3 media [5 mM NaCl, 0.17 mM KCl, 0.33 mM CaCl2, and 0.33 MgSO4 (pH 7.2)] at a density of 50 embryos/larvae per […] petri dish. Experimental animals were used at 5 days post-fertilization and cryo-anesthetized after treatment and before fixation. Average HC counts in our studies were obtained from the following three neuromasts: MI1 (medial neuromast 1) and O1 and O2 (otic line).

Assay [4] relates to P42 FVB mice. Briefly: Cisplatin-induced hearing loss in adult mice (ABR, OHC counts, pERK). Conditions: 75 mg/kg oral gavage, cisplatin 30 mg/kg i.p. How it is done:
As described in Fig. 4A, baseline auditory brainstem response (ABR) thresholds for P42 FVB mice were established 1 week before experimental procedures. […] Animals were allowed 21 days after cisplatin injection to recover, and final ABR thresholds were recorded.
Ten milligrams of cisplatin (479306, Sigma-Aldrich) powder was dissolved in 10 ml of sterile saline (0.9% NaCl) at 37°C for 40 to 60 min. Cisplatin was administered to FVB mice at 30 mg/kg via intraperitoneal injection. One day before cisplatin injection, mice received 1 ml of saline by subcutaneous injection. To ameliorate dehydration after cisplatin injection, 1 ml of warm saline was injected twice per day for at least 7 days or until body weight started to recover. The cages of cisplatin-treated mice were placed on the heating pad for at least 7 days or until body weight began to recover. Fresh mush food was daily given for at least 7 days.
(§3) Compounds were dissolved in a mixture of 10% DMSO, 5% Tween 80 (P1754, Sigma-Aldrich), 40% PEG-E-300 (91462-1KG, Sigma-Aldrich), and 45% 0.9% saline.
(§4) ABR in mice was measured for left ears as described previously with minor modifications ([13], [34]). In brief, ABR waveforms were recorded in a sound booth (Industrial Acoustic Company) by using subdermal needles positioned in the skull, below the pinna, and at the base of the tail, and the responses were fed into a low-impedance Medusa digital biological amplifier system (RA4L; TDT; 20-dB gain). At each frequency, the stimulus intensity was reduced from 90 to 0 dB in 10-dB steps to determine the threshold decibel SPL when the electrical response was just above the noise floor. ABR waveforms were averaged in response to 500 tone bursts. The recorded signals were filtered by a band-pass filter from 300 Hz to 3 kHz. Pretreatment ABR recordings of adult FVB mice (aged 6 weeks) were acquired 1 week before all treatments, and posttreatment ABR measurements were recorded 21 days after cisplatin treatment or 14 days after noise exposure. ABR threshold was determined by the presence of any of three or more of the five waveform peaks. […] All thresholds and shifts were determined independently by two experimenters for each mouse. Individual ABR wave 1 amplitudes were measured as the difference between the positive peak and the following negative trough.
Cochleae from adult mice were prepared and examined as described previously ([85], [86]). All images were acquired with a confocal microscope (LSM 700 or 710, Zeiss). Samples were stained with phalloidin (A12379 or A12380, Invitrogen) or with antibodies for other markers. The following primary antibodies were used: anti–myosin VI (1:400; 25-6791; Proteus Bioscience), anti–myosin VIIa ([…];138-1-s, Developmental Studies Hybridoma Bank), anti-Tuj1 (1:250; 801201, BioLegend), anti-pERK (1:400; 9101S, Cell Signaling Technology), or anti-Ctbp2 (1:500; 612044, BD Transduction). Anti-rabbit Alexa Fluor 488 (1:400; A11034) and anti-mouse Alexa Fluor 647 (1:400; A31571) secondary antibodies were purchased from Invitrogen. ProLong gold antifade reagent with 4′,6-diamidino-2-phenylindole (P36941, Invitrogen) was used to counterstain nuclei.

The subject of assay [5] is P42 FVB mice. Briefly: Noise-induced hearing loss in adult mice (ABR, DPOAE, Ctbp2 puncta, pERK). Type of assay: in vivo, mouse. How it is done:
Noise injury cannot always be predicted, and pretreatment is often not an option.
as §3, §4
Mice were placed in individual cages in a custom-made acrylic chamber. The sound stimulus was produced by System RZ6 (TDT) equipment and amplified using a 75-A power amplifier (Crown). Sound was delivered to the acrylic chamber via a speaker horn (JBL). The SPL was calibrated with a 1/4-inch free-field microphone (PCB). Before experimental noise exposure, four quadrants of the cage inside the chamber were sampled with the 1/4-inch microphone to ensure that the SPL varied by <0.5 dB across the measured positions. Adult mice were then exposed to 2 hours of octave band noise (8 to 16 kHz) at 100 dB.
Organs of Corti were costained with anti-Ctbp2 and anti–myosin VI antibodies. Confocal imaging was performed using a Zeiss 700 scanning confocal microscope with a 63× objective. Visualization and projections were performed using ZEN 2009 or ZEN 2012 software (Zeiss). Ctbp2 puncta were visualized and counted on the reconstructed three-dimensional images by using the ZEN 2009 or ZEN 2012 three-dimensional construct function as previously reported ([54]). […] Images were acquired around 16-kHz cochlear regions, and each image included 12 to 18 IHCs that were quantified as total number of Ctbp2 puncta divided by total number of IHCs per image.

With `Cc1ncc(-c2ccnc(Nc3ccc(S(C)(=O)=O)cc3)n2)n1C(C)C` [AZD5438], the “effect on cisplatin-induced tumor cell death” value in assay [1] is on record as “did not interfere with or enhanced”. The “interference with cisplatin killing ability” value in assay [2] was “interfered with cisplatin killing ability”. For the same compound, the “protection from cisplatin-induced neuromast HC loss” value in assay [3] was “confer protection”. Further, the “protection against cisplatin-induced hearing loss, pretreatment” value in assay [4] is reported as “protected”. Also, in assay [5] (35 mg/kg twice daily oral gavage, post-noise), the “reduction of ABR threshold shifts, treatment after noise” value is “did not significantly reduce”. Also, the “protection against noise-induced hearing loss, pretreatment” value in assay [5] (75 mg/kg oral gavage pretreatment) is recorded as “protected”.

The values above are taken from paper PMC7821884, “BRAF inhibition protects against hearing loss in mice” (Science Advances, 2020).
